PMC12970513, “Unsaturated Phosphorus Electrophiles to Probe Protein Tyrosine Phosphatases” (Angewandte Chemie (International Ed. in English), 2026)

System: PTP1B in MCF-7 cell lysate
Experiment: Lysate labeling by western blot, MCF-7
Design: species or system human
Settings: 25–500 µM, 4 h, MCF-7 lysate 4 mg/mL
Procedure: To verify a consistent labeling profile by TMR‐PO, we tested additional PTP1B‐containing mammalian lysates. […] Therefore, we attempted to identify conditions where more intense labeling is noticeable. […] Increasing reaction time led to a proportional increase in biotin‐signal overlapping with the PTP1B band. […] A 4‐h incubation was chosen for the following experiments for ease of protocol and due to the robust labeling observed.
In that respect, following a 4‐h incubation time, we tested increasing concentrations of bio‐PO up to 500 µM to further increase the labeling efficiency. […] This highlights that labeling is also consistent with the abundance of PTP1B in these cell lines, which was measured by quantitative proteomics (Figure 5b). […]
For western blot analysis, samples resolved by SDS-PAGE were transferred to a polyvinylidene difluoride (PVDF) membrane using a Trans-Blot Turbo (Bio-Rad) semi dry blotting system according to the manufacturer`s instructions. […] The HRP signal was detected using the Pierce ECL Western Blotting Substrate (ThermoFisher Scientific) and imaged using the ChemiDoc (Bio-Rad) imaging system. […] Biotin was probed against using Streptavidin-horse radish peroxidase (HRP) conjugate (Thermo Fisher Scientific, N100) at a 1:5000 dilution for 1 hour at room temperature and the HRP signal was detected as mentioned above. […]

SMILES	labeling of MCF-7 lysate by small molecule control SM-PN	labeling of MCF-7 lysate by small molecule control SM-PO
C#CP(=O)(O)Nc1ccc(CCNC(=O)CCCC[C@@H]2SC[C@@H]3NC(=O)N[C@@H]32)cc1 [SM-PN, N-(4-(2-biotinamidoethyl)phenyl)-P-ethynylphosphonamidic acid]	No labeling was observed	
C#CP(=O)(O)Oc1ccc(CCNC(=O)CCCC[C@@H]2SC[C@@H]3NC(=O)N[C@@H]32)cc1 [SM-PO, 4-(2-biotinamidoethyl)phenyl ethynylphosphonic acid monoester]		a band with increasing intensity was apparent in the biotin signal upon concentration increase
